In publication PMC5267425, “Identification of small molecule modulators of HIV-1 Tat and Rev protein accumulation” (Retrovirology, 2017):
Values joined by “and” are separate entries in the source; they are usually repeats but may differ in a detail not shown here. Equal entries are not always repeated.

Test system: cellular gene expression in HeLa rtTA HIV∆Mls cells

For `Cc1cc(NCc2cccnc2)n2ncc(-c3ccc(Cl)cc3)c2n1` [Compound 791, 3-(4-chlorophenyl)-5-methyl-N-(3-pyridinylmethyl)pyrazolo[1,5-a]pyrimidin-7-amine], which SIKE1 expression level (gene SIKE1, 9147791-treated cells, two replicates) is on record?
The SIKE1 expression level was 10.16 and 10.46.

And the SLC26A11 expression level (gene SLC26A11, 9147791-treated cells, two replicates)?
Its SLC26A11 expression level is 7.10 and 7.46.

What about the SLC35B3 expression level (gene SLC35B3, 9147791-treated cells, two replicates) of the same compound?
The SLC35B3 expression level was 9.59 and 9.09.

And the SLC38A6 expression level (gene SLC38A6, 9147791-treated cells, two replicates)?
The SLC38A6 expression level was 8.14 and 8.35.

What about the SLC39A6 expression level (gene SLC39A6, 9147791-treated cells, two replicates) of the same compound?
The SLC39A6 expression level was 55.62 and 53.39.

And the SMEK2 expression level (gene SMEK2, 9147791-treated cells, two replicates)?
The SMEK2 expression level was 22.28 and 23.17.

What about the SQSTM1 expression level (gene SQSTM1, 9147791-treated cells, two replicates) of the same compound?
Its SQSTM1 expression level is 402.87 and 398.40.

And the ST6GALNAC4 expression level (gene ST6GALNAC4, 9147791-treated cells, two replicates)?
The ST6GALNAC4 expression level was 39.60 and 40.55.

And the ST7L expression level (gene ST7L, 9147791-treated cells, two replicates)?
Its ST7L expression level is 3.77 and 3.85.

And the STAMBP expression level (gene STAMBP, 9147791-treated cells, two replicates)?
Its STAMBP expression level is 26.17 and 25.95.

What about the STK24 expression level (gene STK24, 9147791-treated cells, two replicates) of the same compound?
The STK24 expression level was 98.53 and 99.63.

What about the STK36 expression level (gene STK36, 9147791-treated cells, two replicates) of the same compound?
The STK36 expression level was 5.44 and 5.78.

And the STK40 expression level (gene STK40, 9147791-treated cells, two replicates)?
The STK40 expression level was 6.18 and 6.16.

And the STX4 expression level (gene STX4, 9147791-treated cells, two replicates)?
Its STX4 expression level is 45.64 and 43.00.

What about the TBCCD1 expression level (gene TBCCD1, 9147791-treated cells, two replicates) of the same compound?
Its TBCCD1 expression level is 7.66 and 8.12.

And the TGDS expression level (gene TGDS, 9147791-treated cells, two replicates)?
Its TGDS expression level is 10.85 and 10.65.

And the TIGD2 expression level (gene TIGD2, 9147791-treated cells, two replicates)?
Its TIGD2 expression level is 10.77 and 11.51.

What about the TMEM33 expression level (gene TMEM33, 9147791-treated cells, two replicates) of the same compound?
Its TMEM33 expression level is 13.53 and 12.82.

What about the TMEM68 expression level (gene TMEM68, 9147791-treated cells, two replicates) of the same compound?
The TMEM68 expression level was 5.74 and 5.79.

And the TMEM120B expression level (gene TMEM120B, 9147791-treated cells, two replicates)?
Its TMEM120B expression level is 7.48 and 7.87.

And the TMEM126B expression level (gene TMEM126B, 9147791-treated cells, two replicates)?
Its TMEM126B expression level is 51.64 and 47.99.

What about the TMEM134 expression level (gene TMEM134, 9147791-treated cells, two replicates) of the same compound?
The TMEM134 expression level was 16.44 and 17.07.

What about the TMEM167B expression level (gene TMEM167B, 9147791-treated cells, two replicates) of the same compound?
The TMEM167B expression level was 13.61 and 13.31.

What about the TRIM38 expression level (gene TRIM38, 9147791-treated cells, two replicates) of the same compound?
The TRIM38 expression level was 6.07 and 6.47.

What about the TRMT2A expression level (gene TRMT2A, 9147791-treated cells, two replicates) of the same compound?
Its TRMT2A expression level is 11.24 and 11.68.

What about the TRNT1 expression level (gene TRNT1, 9147791-treated cells, two replicates) of the same compound?
The TRNT1 expression level was 14.44 and 15.17.

And the TTC9C expression level (gene TTC9C, 9147791-treated cells, two replicates)?
Its TTC9C expression level is 44.37 and 45.86.

What about the USP3 expression level (gene USP3, 9147791-treated cells, two replicates) of the same compound?
Its USP3 expression level is 15.95 and 16.26.

What about the USP45 expression level (gene USP45, 9147791-treated cells, two replicates) of the same compound?
Its USP45 expression level is 4.03 and 4.15.

And the VHL expression level (gene VHL, 9147791-treated cells, two replicates)?
The VHL expression level was 23.74 and 22.96.

What about the WDR73 expression level (gene WDR73, 9147791-treated cells, two replicates) of the same compound?
The WDR73 expression level was 10.95 and 11.17.

What about the XPO5 expression level (gene XPO5, 9147791-treated cells, two replicates) of the same compound?
The XPO5 expression level was 32.34 and 33.37.

And the ZBED5 expression level (gene ZBED5, 9147791-treated cells, two replicates)?
The ZBED5 expression level was 26.69 and 27.18.

And the ZBTB26 expression level (gene ZBTB26, 9147791-treated cells, two replicates)?
The ZBTB26 expression level was 10.25 and 9.99.

And the ZBTB34 expression level (gene ZBTB34, 9147791-treated cells, two replicates)?
Its ZBTB34 expression level is 4.78 and 4.42.

And the ZCCHC4 expression level (gene ZCCHC4, 9147791-treated cells, two replicates)?
Its ZCCHC4 expression level is 6.80 and 6.69.

And the ZCCHC8 expression level (gene ZCCHC8, 9147791-treated cells, two replicates)?
The ZCCHC8 expression level was 17.17 and 17.82.

And the ZCCHC9 expression level (gene ZCCHC9, 9147791-treated cells, two replicates)?
Its ZCCHC9 expression level is 6.71 and 6.52.

What about the ZFP30 expression level (gene ZFP30, 9147791-treated cells, two replicates) of the same compound?
The ZFP30 expression level was 3.88 and 3.75.

And the ZFP36L2 expression level (gene ZFP36L2, 9147791-treated cells, two replicates)?
The ZFP36L2 expression level was 6.55 and 6.96.

And the ZFP64 expression level (gene ZFP64, 9147791-treated cells, two replicates)?
Its ZFP64 expression level is 11.62 and 11.15.

And the ZFYVE27 expression level (gene ZFYVE27, 9147791-treated cells, two replicates)?
Its ZFYVE27 expression level is 15.03 and 14.85.

And the ZNF12 expression level (gene ZNF12, 9147791-treated cells, two replicates)?
Its ZNF12 expression level is 10.78 and 10.46.

And the ZNF91 expression level (gene ZNF91, 9147791-treated cells, two replicates)?
The ZNF91 expression level was 4.92 and 4.68.

What about the ZNF133 expression level (gene ZNF133, 9147791-treated cells, two replicates) of the same compound?
Its ZNF133 expression level is 7.16 and 7.05.

And the ZNF184 expression level (gene ZNF184, 9147791-treated cells, two replicates)?
Its ZNF184 expression level is 6.52 and 6.31.

And the ZNF193 expression level (gene ZNF193, 9147791-treated cells, two replicates)?
The ZNF193 expression level was 10.85.

What about the ZNF195 expression level (gene ZNF195, 9147791-treated cells, two replicates) of the same compound?
The ZNF195 expression level was 11.04 and 10.45.

What about the ZNF319 expression level (gene ZNF319, 9147791-treated cells, two replicates) of the same compound?
Its ZNF319 expression level is 3.69 and 3.71.

And the ZNF320 expression level (gene ZNF320, 9147791-treated cells, two replicates)?
The ZNF320 expression level was 11.36 and 12.30.

What about the ZNF354A expression level (gene ZNF354A, 9147791-treated cells, two replicates) of the same compound?
Its ZNF354A expression level is 9.92 and 9.13.

What about the ZNF445 expression level (gene ZNF445, 9147791-treated cells, two replicates) of the same compound?
Its ZNF445 expression level is 5.75 and 5.83.

And the ZNF566 expression level (gene ZNF566, 9147791-treated cells, two replicates)?
The ZNF566 expression level was 3.15 and 2.91.

And the ZNF619 expression level (gene ZNF619, 9147791-treated cells, two replicates)?
Its ZNF619 expression level is 2.16 and 1.99.

What about the ZNF664 expression level (gene ZNF664, 9147791-treated cells, two replicates) of the same compound?
Its ZNF664 expression level is 57.01 and 56.94.

And the ZNF700 expression level (gene ZNF700, 9147791-treated cells, two replicates)?
The ZNF700 expression level was 10.30 and 10.08.

What about the ZNF706 expression level (gene ZNF706, 9147791-treated cells, two replicates) of the same compound?
Its ZNF706 expression level is 34.34 and 36.65.

And the ZNF764 expression level (gene ZNF764, 9147791-treated cells, two replicates)?
The ZNF764 expression level was 5.35 and 5.20.

What about the ZNF780B expression level (gene ZNF780B, 9147791-treated cells, two replicates) of the same compound?
Its ZNF780B expression level is 4.74 and 4.46.

And the ZNF800 expression level (gene ZNF800, 9147791-treated cells, two replicates)?
Its ZNF800 expression level is 6.37 and 6.62.

And the ZRSR2 expression level (gene ZRSR2, 9147791-treated cells, two replicates)?
The ZRSR2 expression level was 34.69 and 32.80.

What about the ZSWIM7 expression level (gene ZSWIM7, 9147791-treated cells, two replicates) of the same compound?
The ZSWIM7 expression level was 4.48 and 4.71.

What about the “genes with changes of <fivefold in expression” value (of ~10,000 genes detected) of the same compound?
The value was 85.

And the “genes with changes of <tenfold in expression” value (of ~10,000 genes detected)?
Its value is 4.
